Test results published in patent US7569578B2, “Heterocyclic anti-migraine agents” (Bristol-Meyers Squibb Company, priority 2003, dated 2009).

The compounds below were run against T1, Human CGRP1 Receptor (Homo sapiens, UniProt O60894+Q16602) (assay: CGRP Binding Assay ([125I]-CGRP radioligand displacement, SK-N-MC membrane homogenate)). Conditions: [125I]-CGRP displacement, SK-N-MC homogenate, room temperature 2 h; read-out: Human CGRP1 Receptor IC50.
T1 construct: endogenous in cells; host or cells: SK-N-MC cells (membrane homogenate)
T1 sequence (Q16602 23-461): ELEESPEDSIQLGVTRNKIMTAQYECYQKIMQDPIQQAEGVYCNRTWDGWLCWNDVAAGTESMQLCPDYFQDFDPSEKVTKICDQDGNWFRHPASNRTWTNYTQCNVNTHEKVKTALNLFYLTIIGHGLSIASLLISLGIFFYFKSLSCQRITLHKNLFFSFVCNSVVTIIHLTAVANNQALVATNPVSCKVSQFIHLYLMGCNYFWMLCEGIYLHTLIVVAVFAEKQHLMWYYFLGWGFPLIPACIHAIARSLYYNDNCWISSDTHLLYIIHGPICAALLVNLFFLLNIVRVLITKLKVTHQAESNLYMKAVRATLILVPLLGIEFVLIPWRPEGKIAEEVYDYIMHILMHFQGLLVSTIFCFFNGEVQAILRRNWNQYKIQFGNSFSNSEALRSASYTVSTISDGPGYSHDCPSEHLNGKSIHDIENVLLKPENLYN
T1 sequence (O60894 27-148): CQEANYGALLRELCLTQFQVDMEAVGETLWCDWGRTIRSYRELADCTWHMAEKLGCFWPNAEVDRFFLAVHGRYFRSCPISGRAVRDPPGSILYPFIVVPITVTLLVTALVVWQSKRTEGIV
Method: Tissue Culture. SK-N-MC cells were grown at 37° C. in 5% CO2 as a monolayer in medium consisting of MEM with Earle's salts and L-glutamine (Gibco) supplemented with 10% fetal bovine serum (Gibco).
Cell Pellets. […] The cells were transferred from plates to polypropylene tubes (16×100 mm) and homogenized using a polytron. Homogenates were centrifuged at 32,000×g for 30 min. The pellets were resuspended in cold hypotonic lysis buffer with 0.1% mammalian protease inhibitor cocktail (Sigma) and assayed for protein concentration. The SK-N-MC homogenate was then aliquoted and stored at −80° C. until needed.
Radioligand Binding Assay. The compounds of invention were solubilized and carried through serial dilutions using 100% DMSO. Aliquots from the compound serial dilutions were further diluted 25 fold into assay buffer (50 mM Tris-Cl pH 7.5, 5 mM MgCl2, 0.005% Triton X-100) and transferred (volume 50 μl) into 96 well assay plates. […] SK-N-MC pellets were thawed, diluted in assay buffer with fresh 0.1% mammalian protease inhibitor cocktail (Sigma), and homogenized again. SK-N-MC homogenate (5 μg/well) was added in a volume of 100 μl. The assay plates were then incubated at room temperature for 2 h. Assays were stopped by addition of excess cold wash buffer (20 mM Tris-Cl pH 7.5, 0.1% BSA) immediately followed by filtration over glass fiber filters (Whatman GF/B) previously soaked in 0.5% PEI. Non-specific binding was defined with 1 μM beta-CGRP. Protein bound radioactivity was determined using a gamma or scintillation counter.

Compound	IC50
Cc1cc(CC(CC(=O)N2CCC(N3Cc4ccccc4NC3=O)CC2)c2ccc(C=O)cn2)cc2cn[nH]c12 (racemic) [Example 28, (±)-6-(1-(7-Methyl-1H-indazol-5-yl)-4-oxo-4-(4-(2-oxo-1,2-dihydroquinazolin-3(4H)-yl)piperidin-1-yl)butan-2-yl)nicotinaldehyde]	< 10 nM
Cc1cc(CC(CC(=O)N2CCC(N3Cc4ccccc4NC3=O)CC2)c2ccc(CN3CCCCC3)cn2)cc2cn[nH]c12 (racemic) [Example 29, (±)-3-(1-(4-(7-Methyl-1H-indazol-5-yl)-3-(5-(piperidin-1-ylmethyl)pyridin-2-yl)butanoyl)piperidin-4-yl)-3,4-dihydroquinazolin-2(1H)-one]	< 10 nM
Cc1cc(CC(NC(=O)N2CCC(N3Cc4ccccc4NC3=O)CC2)c2cc([N+](=O)[O-])ccn2)cc2cn[nH]c12 (racemic) [Example 32, (±)-N-(2-(7-Methyl-1H-indazol-5-yl)-1-(4-nitropyridin-2-yl)ethyl)-4-(2-oxo-1,2-dihydroquinazolin-3(4H)-yl)piperidine-1-carboxamide]	< 10 nM
Cc1cc(CC(NC(=O)N2CCC(N3Cc4cccc(F)c4NC3=O)CC2)c2ccc3ccccc3n2)cc2cn[nH]c12 (racemic) [Example 35, (±)-4-(8-Fluoro-2-oxo-1,2-dihydroquinazolin-3(4H)-yl)-N-(2-(7-methyl-1H-indazol-5-yl)-1-(quinolin-2-yl)ethyl)piperidine-1-carboxamide]	< 10 nM
Cc1cc(CC(NC(=O)N2CCC(N3Cc4ccccc4NC3=O)CC2)c2cccc(-c3ccccc3)n2)cc2cn[nH]c12 (racemic) [Example 37, (±)-N-(2-(7-Methyl-1H-indazol-5-yl)-1-(6-phenylpyridin-2-yl)ethyl)-4-(2-oxo-1,2-dihydroquinazolin-3(4H)-yl)piperidine-1-carboxamide]	10 to 100 nM
Cc1cc(CC(OC(=O)N2CCC(N3Cc4cccc(F)c4NC3=O)CC2)c2cccc(Br)n2)cc2cn[nH]c12 (racemic) [Example 39, (±)-1-(6-Bromopyridin-2-yl)-2-(7-methyl-1H-indazol-5-yl)ethyl 4-(8-fluoro-2-oxo-1,2-dihydroquinazolin-3(4H)-yl)piperidine-1-carboxylate]	< 10 nM

Other lines, results leading:

IC50	Compound
< 10 nM	Cc1cc(CC(NC(=O)N2CCC(N3Cc4ccccc4NC3=O)CC2)c2cccc(Br)n2)cc2cn[nH]c12 (racemic) [Example 30, (±)-N-(1-(6-Bromopyridin-2-yl)-2-(7-methyl-1H-indazol-5-yl)ethyl)-4-(2-oxo-1,2-dihydroquinazolin-3(4H)-yl)piperidine-1-carboxamide]
< 10 nM	Cc1cc(CC(NC(=O)N2CCC(N3Cc4ccccc4NC3=O)CC2)c2ccccn2)cc2cn[nH]c12 (racemic) [Example 31, (±)-N-(2-(7-Methyl-1H-indazol-5-yl)-1-(pyridin-2-yl)ethyl)-4-(2-oxo-1,2-dihydroquinazolin-3(4H)-yl)piperidine-1-carboxamide]
< 10 nM	Cc1cc(CC(NC(=O)N2CCC(N3Cc4ccccc4NC3=O)CC2)c2cc(F)ccn2)cc2cn[nH]c12 (racemic) [Example 33, (±)-N-(1-(4-Fluoropyridin-2-yl)-2-(7-methyl-1H-indazol-5-yl)ethyl)-4-(2-oxo-1,2-dihydroquinazolin-3(4H)-yl)piperidine-1-carboxamide]
< 10 nM	Cc1cc(CC(NC(=O)N2CCC(N3Cc4ccccc4NC3=O)CC2)c2ccc3ccccc3n2)cc2cn[nH]c12 (racemic) [Example 34, (±)-N-(2-(7-Methyl-1H-indazol-5-yl)-1-(quinolin-2-yl)ethyl)-4-(2-oxo-1,2-dihydroquinazolin-3(4H)-yl)piperidine-1-carboxamide]
< 10 nM	Cc1cccc(C(Cc2cc(C)c3[nH]ncc3c2)NC(=O)N2CCC(N3Cc4ccccc4NC3=O)CC2)n1 (racemic) [Example 38, (±)-N-(2-(7-Methyl-1H-indazol-5-yl)-1-(6-methylpyridin-2-yl)ethyl)-4-(2-oxo-1,2-dihydroquinazolin-3(4H)-yl)piperidine-1-carboxamide]
